{"source": "patent US11753409B2", "about": "“Crystalline salts of a B-RAF kinase inhibitor” (Xynomic Pharmaceuticals, Inc., priority 2017, dated 2023)", "key": {"[1]": {"test": "Intrinsic dissolution rate, rotating disc method", "format": "physicochemical", "conditions": "pH of medium 1.0 (0.1M HCl), 37° C."}, "[2]": {"test": "Sorption-desorption (DVS) of the salts with XRPD before and after", "format": "physicochemical", "procedure": "Dynamic Vapor Sorption (DVS) was performed in a IGAsorp Water Sorption Analyzer from Hiden Isochema. Adsorption and desorption isotherms were performed at 25° C. with 10% RH step intervals ranging from 0% relative humidity up to 90% relative humidity."}, "[3]": {"test": "Equilibrium solubility in various aqueous media (solubility after 2 h)", "format": "physicochemical", "conditions": "thermodynamic from solid", "procedure": "Saturated solutions are prepared in well plates by adding an appropriate volume of selected aqueous media (typically in the range of 0.25-1.5 mL) into each well which contains a known quantity of solid drug substance (typically in the range 0.5-5.0 mg). The wells are shaken or stirred for a predefined time period (typically in a range of 2-24 h) and then filtered using appropriate filter membranes (typically PTFE-filters with 0.45 μm pore size). Filter absorption is avoided by discarding the first few drops of filtrate. The amount of dissolved drug substance is determined by UV spectroscopy. In addition, the pH of the aqueous saturated solution is measured using a glass-electrode pH meter.\nThe equilibrium solubility of N-(3-(5-((1-Ethylpiperidin-4-yl)(methyl)amino)-3-(pyrimidin-5-yl)-1H-pyrrolo[3,2-b]pyridin-1-yl)-2,4-difluorophenyl)propane-1-sulfonamide monohydrochloride salt in various media was determined.\nThe solubility of N-(3-(5-((1-Ethylpiperidin-4-yl)(methyl)amino)-3-(pyrimidin-5-yl)-1H-pyrrolo[3,2-b]pyridin-1-yl)-2,4-difluorophenyl)propane-1-sulfonamide monosuccinate salt in various media was determined."}, "[4]": {"test": "Pharmacokinetics following oral administration to rats", "format": "in vivo, HsdHan:WIST Norway rats", "conditions": "rat; for AUD: AUD range 0-6 h; for concentration at 24 h: mean n = 3, read-out: Blood Plasma Concentrations", "procedure": "The pharmacokinetics of N-(3-(5-((1-ethylpiperidin-4-yl)(methyl)amino)-3-(pyrimidin-5-yl)-1H-pyrrolo[3,2-b]pyridin-1-yl)-2,4-difluorophenyl)propane-1-sulfonamide hydrochloride salt and N-(3-(5-((1-ethylpiperidin-4-yl)(methyl)amino)-3-(pyrimidin-5-yl)-1H-pyrrolo[3,2-b]pyridin-1-yl)-2,4-difluorophenyl)propane-1-sulfonamide […] following oral administration at 40 mg and 80 mg (dose calculated as the free base) to HsdHan:WIST Norway rats. Each salt was administered to 3 animals."}, "[5]": {"test": "Milling and compression stress followed by XRPD", "format": "physicochemical", "procedure": "FIG. 20 is a plot of the XRPD of N-(3-(5-((1-ethylpiperidin-4-yl)(methyl)amino)-3-(pyrimidin-5-yl)-1H-pyrrolo[3,2-b]pyridin-1-yl)-2,4-difluorophenyl)propane-1-sulfonamide monohydrochloride salt following milling in a swing mill for 10 min. at 30 rps.\nFIG. 21 is a plot of the XRPD of N-(3-(5-((1-ethylpiperidin-4-yl)(methyl)amino)-3-(pyrimidin-5-yl)-1H-pyrrolo[3,2-b]pyridin-1-yl)-2,4-difluorophenyl)propane-1-sulfonamide monohydrochloride salt following compression at 2000 N for 1 s to a tablet (diameter-5 mm).\nFIG. 31 is a plot of the XRPD of N-(3-(5-((1-ethylpiperidin-4-yl)(methyl)amino)-3-(pyrimidin-5-yl)-1H-pyrrolo[3,2-b]pyridin-1-yl)-2,4-difluorophenyl)propane-1-sulfonamide monosuccinate salt following milling in a swing mill for 10 min. at 30 rps.\nFIG. 32 is a plot of the XRPD of N-(3-(5-((1-ethylpiperidin-4-yl)(methyl)amino)-3-(pyrimidin-5-yl)-1H-pyrrolo[3,2-b]pyridin-1-yl)-2,4-difluorophenyl)propane-1-sulfonamide monosuccinate salt following compression at 2000 N for 1 s to a tablet (diameter-5 mm)."}, "[6]": {"test": "Intrinsic dissolution rate, rotating disc method", "format": "physicochemical", "procedure": "The intrinsic dissolution rate of 3-(5-((1-ethylpiperidin-4-yl)(methyl)amino)-3-(pyrimidin-5-yl)-1H-pyrrolo[3,2-b]pyridin-1-yl)-2,4-difluorophenyl)propane-1-sulfonamide salts was determined in aqueous media covering a range of pH 1.1-7.4 using the rotating disc method which maintains a constant surface area.\nThe drug substance (5 mg) was compressed at 356.1 Newtons for 60 s to form a disk. These disks were mounted to sample holders which fit into a miniaturized dissolution testing apparatus. The dissolution media were stirred at 200 rpm at a temperature of 37° C. Samples were automatically withdrawn every second minute from the dissolution vessel and assayed by UV spectrophotometry.\nThe intrinsic dissolution rate of N-(3-(5-((1-ethylpiperidin-4-yl)(methyl)amino)-3-(pyrimidin-5-yl)-TH-pyrrolo[3,2-b]pyridin-1-yl)-2,4-difluorophenyl)propane-1-sulfonamide monohydrochloride salt in various media was measured in media at various pH values.\nThe intrinsic dissolution rate of N-(3-(5-((1-ethylpiperidin-4-yl)(methyl)amino)-3-(pyrimidin-5-yl)-1H-pyrrolo[3,2-b]pyridin-1-yl)-2,4-difluorophenyl)propane-1-sulfonamide monosuccinate salt in various media was measured in media at various pH values."}, "[7]": {"conditions": "HsdHan:WIST, plasma, 40 mg/kg oral"}}, "note": "Read-outs that look alike come from different tables or passages of the source."}
{"smiles": "CCCS(=O)(=O)Nc1ccc(F)c(-n2cc(-c3cncnc3)c3nc(N(C)C4CCN(CC)CC4)ccc32)c1F.Cl", "note": "[Monohydrochloride Salt, N-(3-(5-((1-Ethylpiperidin-4-yl)(methyl)amino)-3-(pyrimidin-5-yl)-1H-pyrrolo[3,2-b]pyridin-1-yl)-2,4-difluorophenyl)propane-1-sulfonamide monohydrochloride salt]", "values": [{"measurement": "Intrinsic Dissolution Rate", "setting": "[1]", "value": 4, "unit": "μg/cm^2/min."}, {"measurement": "Change in structure (XRPD) after sorption-desorption experiment", "setting": "[2]; XRPD before and after", "value": "no significant change in structure occurred"}, {"measurement": "Reversible weight gain (isotherm sorption-desorption)", "setting": "[2]; range from 0-80% relative humidity", "value": "approximately 2.5%"}, {"measurement": "Reversible weight gain (isotherm sorption-desorption)", "setting": "[2]; range from 0-90% relative humidity", "value": "approximately 400%"}, {"measurement": "Weight gain (sorption-desorption)", "setting": "[2]; range from 10-90% relative humidity, scale-up sample", "value": "approximately 2.4%"}, {"measurement": "solubility at 2 h", "setting": "[3]; 0.01 M HCl, simulated gastric fluid, HCl (0.01M)", "value": 20, "unit": "µg/mL"}, {"measurement": "solubility at 2 h", "setting": "[3]; 0.1 M HCl, simulated gastric fluid, HCl (0.1M)", "value": 60, "unit": "µg/mL"}, {"measurement": "solubility at 2 h", "setting": "[3]; aqueous buffer, 0.1M Citric acid", "value": 400, "unit": "µg/mL"}, {"measurement": "solubility at 2 h", "setting": "[3]; aqueous buffer, 0.1M NaOH", "value": "> 10000", "unit": "µg/mL"}, {"measurement": "solubility at 2 h", "setting": "[3]; aqueous buffer, Acetate Buffer (pH 5.0)", "value": 200, "unit": "µg/mL"}, {"measurement": "solubility at 2 h", "setting": "[3]; aqueous buffer, McIlvaine Buffer (pH 2.2)", "value": 400, "unit": "µg/mL"}, {"measurement": "solubility at 2 h", "setting": "[3]; aqueous buffer, McIlvaine Buffer (pH 3.0)", "value": 200, "unit": "µg/mL"}, {"measurement": "solubility at 2 h", "setting": "[3]; aqueous buffer, McIlvaine Buffer (pH 4.0)", "value": 100, "unit": "µg/mL"}, {"measurement": "solubility at 2 h", "setting": "[3]; aqueous buffer, McIlvaine Buffer (pH 4.5)", "value": 200, "unit": "µg/mL"}, {"measurement": "solubility at 2 h", "setting": "[3]; aqueous buffer, McIlvaine Buffer (pH 5.0)", "value": 200, "unit": "µg/mL"}, {"measurement": "solubility at 2 h", "setting": "[3]; aqueous buffer, McIlvaine Buffer (pH 6.0)", "value": 100, "unit": "µg/mL"}, {"measurement": "solubility at 2 h", "setting": "[3]; aqueous buffer, McIlvaine Buffer (pH 6.8)", "value": 100, "unit": "µg/mL"}, {"measurement": "solubility at 2 h", "setting": "[3]; aqueous buffer, McIlvaine Buffer (pH 7.4)", "value": 10, "unit": "µg/mL"}, {"measurement": "solubility at 2 h", "setting": "[3]; aqueous buffer, Phosphate Buffer (pH 6.8)", "value": 200, "unit": "µg/mL"}, {"measurement": "solubility at 2 h", "setting": "[3]; aqueous buffer, Sorensen Buffer (pH 9.0)", "value": 10, "unit": "µg/mL"}, {"measurement": "solubility at 2 h", "setting": "[3]; aqueous buffer, Sorensen Buffer (pH 11)", "value": 700, "unit": "µg/mL"}, {"measurement": "solubility at 2 h", "setting": "[3]; Simulated intestinal fluid (FaSSIF)", "value": 2, "unit": "µg/mL"}, {"measurement": "solubility at 2 h", "setting": "[3]; Simulated intestinal fluid (FeSSIF)", "value": 30, "unit": "µg/mL"}, {"measurement": "solubility at 2 h", "setting": "[3]; water", "value": 100, "unit": "µg/mL"}, {"measurement": "AUD", "setting": "[4]; 40 mg/kg oral", "value": 0.312, "unit": "µM·h"}, {"measurement": "AUD", "setting": "[4]; 80 mg/kg oral", "value": 1.04, "unit": "µM·h"}, {"measurement": "Cmax", "setting": "[4]; HsdHan:WIST, in vivo, 80 mg/kg oral", "value": 419, "unit": "nM"}, {"measurement": "bioavailability", "setting": "[4]; HsdHan:WIST, plasma, po, 40 mg/kg dose", "value": 1, "unit": "%"}, {"measurement": "Cmax", "setting": "[4]; [7]", "value": 123, "unit": "nM"}, {"measurement": "Tmax", "setting": "[4]; [7]", "value": 3.3, "unit": "h"}, {"measurement": "Tmax", "setting": "[4]; HsdHan:WIST, plasma, 80 mg/kg oral", "value": 4, "unit": "h"}, {"measurement": "concentration at 24 h", "setting": "[4]; Time 0.5, 40 mg/kg oral", "value": 3.53, "unit": "nM"}, {"measurement": "concentration at 24 h", "setting": "[4]; Time 1.0, 40 mg/kg oral", "value": 6.56, "unit": "nM"}, {"measurement": "concentration at 24 h", "setting": "[4]; Time 1.0, 80 mg/kg oral", "value": 3.69, "unit": "nM"}, {"measurement": "concentration at 24 h", "setting": "[4]; Time 2.0, 40 mg/kg oral", "value": 107, "unit": "nM"}, {"measurement": "concentration at 24 h", "setting": "[4]; Time 2.0, 80 mg/kg oral", "value": 69.9, "unit": "nM"}, {"measurement": "concentration at 24 h", "setting": "[4]; Time 4.0, 40 mg/kg oral", "value": 60.9, "unit": "nM"}, {"measurement": "concentration at 24 h", "setting": "[4]; Time 4.0, 80 mg/kg oral", "value": 419, "unit": "nM"}, {"measurement": "concentration at 24 h", "setting": "[4]; Time 6.0, 40 mg/kg oral", "value": 13.3, "unit": "nM"}, {"measurement": "concentration at 24 h", "setting": "[4]; Time 6.0, 80 mg/kg oral", "value": 69, "unit": "nM"}, {"measurement": "Crystallinity and polymorphic form after compression (XRPD)", "setting": "[5]; 2000 N for 1 s to a tablet (diameter 5 mm)", "value": "slight decrease in crystallinity but no change in polymorphic form"}, {"measurement": "Crystallinity and polymorphic form after milling (XRPD)", "setting": "[5]; swing mill for 10 min. at 30 rps", "value": "significant decrease in crystallinity but no change in polymorphic form"}, {"measurement": "Intrinsic Dissolution Rate", "setting": "[6]; pH of medium 2.2, 37° C.", "value": 121, "unit": "μg/cm^2/min."}, {"measurement": "Intrinsic Dissolution Rate", "setting": "[6]; pH of medium 3.0, 37° C.", "value": 80, "unit": "μg/cm^2/min."}, {"measurement": "Intrinsic Dissolution Rate", "setting": "[6]; pH of medium 4.5, 37° C.", "value": 38, "unit": "μg/cm^2/min."}, {"measurement": "Intrinsic Dissolution Rate", "setting": "[6]; pH of medium 6.8, 37° C.", "value": 15, "unit": "μg/cm^2/min."}, {"measurement": "Intrinsic Dissolution Rate", "setting": "[6]; pH of medium 7.4, 37° C.", "value": 3, "unit": "μg/cm^2/min."}]}
